These molecules were tested against GCN2 (Homo sapiens (Human), UniProt Q9P2K8) (assay: GCN2 Biochemical Assay (TR-FRET, GFP-eIF2S1 substrate phosphorylation)). Conditions: read-out: IC50 (GCN2 Inhibitory Activity).
Method in brief: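 In-house GCN2 (1.6 nM 2× stock) phosphorylates GFP-eIF2S1 (50 nM 2× stock) with ATP (0.2 mM 2× stock) and tRNA, pH 7.5, 70 min at room temperature; 10-point 3.16-fold compound series. TR-FRET detection with Tb-anti-phospho antibody, 2–3 h, Ex 340/Em 490/520 nm; artifact plate spiked with phospho-substrate.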

Chain of GCN2 (Q9P2K8 whole entry): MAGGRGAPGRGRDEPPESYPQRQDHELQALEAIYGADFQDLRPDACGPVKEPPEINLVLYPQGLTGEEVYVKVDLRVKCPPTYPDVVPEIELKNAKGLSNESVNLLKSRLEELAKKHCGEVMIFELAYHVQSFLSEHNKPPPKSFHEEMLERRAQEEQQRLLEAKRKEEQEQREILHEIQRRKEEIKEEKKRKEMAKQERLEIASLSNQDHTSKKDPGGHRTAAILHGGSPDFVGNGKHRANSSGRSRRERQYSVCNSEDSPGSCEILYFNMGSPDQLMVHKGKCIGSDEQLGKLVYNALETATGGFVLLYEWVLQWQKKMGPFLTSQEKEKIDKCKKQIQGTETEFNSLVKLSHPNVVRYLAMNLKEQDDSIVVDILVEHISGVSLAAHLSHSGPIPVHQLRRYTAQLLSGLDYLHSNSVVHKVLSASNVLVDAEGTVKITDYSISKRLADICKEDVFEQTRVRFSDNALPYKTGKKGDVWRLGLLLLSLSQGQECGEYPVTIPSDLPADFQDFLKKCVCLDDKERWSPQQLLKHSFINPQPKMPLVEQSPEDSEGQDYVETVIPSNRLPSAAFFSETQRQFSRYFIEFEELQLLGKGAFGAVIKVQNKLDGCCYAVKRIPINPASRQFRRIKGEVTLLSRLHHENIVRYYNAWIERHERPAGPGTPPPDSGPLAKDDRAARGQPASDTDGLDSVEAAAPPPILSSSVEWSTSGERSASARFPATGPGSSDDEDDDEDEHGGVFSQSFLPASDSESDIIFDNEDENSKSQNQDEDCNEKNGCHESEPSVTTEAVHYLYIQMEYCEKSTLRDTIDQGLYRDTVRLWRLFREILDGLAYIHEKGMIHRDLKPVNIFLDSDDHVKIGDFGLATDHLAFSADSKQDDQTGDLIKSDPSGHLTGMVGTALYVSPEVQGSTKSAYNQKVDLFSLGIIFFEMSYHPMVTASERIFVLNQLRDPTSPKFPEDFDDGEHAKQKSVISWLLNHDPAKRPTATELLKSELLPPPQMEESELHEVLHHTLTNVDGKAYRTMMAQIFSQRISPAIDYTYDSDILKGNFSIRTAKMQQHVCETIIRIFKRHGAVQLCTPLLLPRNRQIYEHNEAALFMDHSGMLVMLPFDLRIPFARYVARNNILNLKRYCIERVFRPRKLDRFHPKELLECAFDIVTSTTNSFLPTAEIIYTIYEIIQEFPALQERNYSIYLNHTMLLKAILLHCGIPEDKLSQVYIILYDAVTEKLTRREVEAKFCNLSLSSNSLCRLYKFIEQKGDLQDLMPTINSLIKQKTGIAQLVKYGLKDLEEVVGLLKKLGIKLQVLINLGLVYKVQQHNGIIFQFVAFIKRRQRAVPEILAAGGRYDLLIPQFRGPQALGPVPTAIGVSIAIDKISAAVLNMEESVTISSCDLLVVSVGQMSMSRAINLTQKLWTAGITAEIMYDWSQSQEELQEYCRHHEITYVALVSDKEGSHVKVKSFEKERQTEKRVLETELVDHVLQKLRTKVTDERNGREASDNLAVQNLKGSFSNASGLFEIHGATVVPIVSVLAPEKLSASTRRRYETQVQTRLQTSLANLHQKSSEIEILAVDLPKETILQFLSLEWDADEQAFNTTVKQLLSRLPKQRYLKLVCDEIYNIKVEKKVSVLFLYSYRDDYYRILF

Compared with `Cc1cnc(Nc2cc(C)n(C)n2)nc1-c1c[nH]c2c(NC(=O)CN3CC[C@H](Oc4cc(N5CCN(C)CC5)ncn4)C3)cccc12` [Example 165, (S)-N-(3-(2-((1,5-dimethyl-1H-pyrazol-3-yl)amino)-5-methylpyrimidin-4-yl)-1H-indol-7-yl)-2-(3-((6-(4-methylpiperazin-1-yl)pyrimidin-4-yl)oxy)pyrrolidin-1-yl)acetamide], `Cc1cnc(Nc2cc(C)n(C)n2)nc1-c1c[nH]c2c(NC(=O)CN3CC[C@H](Oc4cc(N5CCCC5)nc(N)n4)C3)cccc12` [Example 167, (S)-2-(3-((2-amino-6-(pyrrolidin-1-yl)pyrimidin-4-yl)oxy)pyrrolidin-1-yl)-N-(3-(2-((1,5-dimethyl-1H-pyrazol-3-yl)amino)-5-methylpyrimidin-4-yl)-1H-indol-7-yl)acetamide] is higher in IC50: < 10 nM for the first, 10 to 100 nM for the second. The first is the more potent here.

`CNc1cc(O[C@H]2CCN(CC(=O)Nc3cccc4c(-c5nc(Nc6cc(C)n(C)n6)ncc5C)c[nH]c34)C2)nc(N)n1` [Example 166, (S)-2-(3-((2-amino-6-(methylamino)pyrimidin-4-yl)oxy)pyrrolidin-1-yl)-N-(3-(2-((1,5-dimethyl-1H-pyrazol-3-yl)amino)-5-methylpyrimidin-4-yl)-1H-indol-7-yl)acetamide] and `CNc1ccnc(O[C@H]2CCN(CC(=O)Nc3cccc4c(-c5nc(Nc6cc(C)n(C)n6)ncc5C)c[nH]c34)C2)n1` [Example 169, (S)-N-(3-(2-((1,5-dimethyl-1H-pyrazol-3-yl)amino)-5-methylpyrimidin-4-yl)-1H-indol-7-yl)-2-(3-((4-(methylamino)pyrimidin-2-yl)oxy)pyrrolidin-1-yl)acetamide] cannot be ordered by IC50: < 10 nM for the first, < 10 nM for the second.

`Cc1cnc(Nc2cc(C)n(C)n2)nc1-c1c[nH]c2c(NC(=O)CN3CC[C@H](Oc4nccc(N)n4)C3)cccc12` [Example 168, (S)-2-(3-((4-aminopyrimidin-2-yl)oxy)pyrrolidin-1-yl)-N-(3-(2-((1,5-dimethyl-1H-pyrazol-3-yl)amino)-5-methylpyrimidin-4-yl)-1H-indol-7-yl)acetamide] and `Cc1cnc(Nc2cc(C)n(C)n2)nc1-c1c[nH]c2c(NC(=O)CN3CC[C@H](Oc4nccc(N(C)C)n4)C3)cccc12` [Example 170, (S)-N-(3-(2-((1,5-dimethyl-1H-pyrazol-3-yl)amino)-5-methylpyrimidin-4-yl)-1H-indol-7-yl)-2-(3-((4-(dimethylamino)pyrimidin-2-yl)oxy)pyrrolidin-1-yl)acetamide] cannot be ordered by IC50: < 10 nM for the first, < 10 nM for the second.

`CCN(C)c1ccnc(O[C@H]2CCN(CC(=O)Nc3cccc4c(-c5nc(Nc6cc(C)n(C)n6)ncc5C)c[nH]c34)C2)n1` [Example 171, (S)-N-(3-(2-((1,5-dimethyl-1H-pyrazol-3-yl)amino)-5-methylpyrimidin-4-yl)-1H-indol-7-yl)-2-(3-((4-(ethyl(methyl)amino)pyrimidin-2-yl)oxy)pyrrolidin-1-yl)acetamide] and `CCN(CC)c1ccnc(O[C@H]2CCN(CC(=O)Nc3cccc4c(-c5nc(Nc6cc(C)n(C)n6)ncc5C)c[nH]c34)C2)n1` [Example 172, (S)-2-(3-((4-(diethylamino)pyrimidin-2-yl)oxy)pyrrolidin-1-yl)-N-(3-(2-((1,5-dimethyl-1H-pyrazol-3-yl)amino)-5-methylpyrimidin-4-yl)-1H-indol-7-yl)acetamide] cannot be ordered by IC50: < 10 nM for the first, < 10 nM for the second.

`Cc1cnc(Nc2cc(C)n(C)n2)nc1-c1c[nH]c2c(NC(=O)CN3CC[C@H](Oc4nccc(N5CCCC5)n4)C3)cccc12` [Example 173, (S)-N-(3-(2-((1,5-dimethyl-1H-pyrazol-3-yl)amino)-5-methylpyrimidin-4-yl)-1H-indol-7-yl)-2-(3-((4-(pyrrolidin-1-yl)pyrimidin-2-yl)oxy)pyrrolidin-1-yl)acetamide] and `Cc1cnc(Nc2cc(C)n(C)n2)nc1-c1c[nH]c2c(NC(=O)CN3CC[C@H](Oc4nccc(N5CCCCC5)n4)C3)cccc12` [Example 174, (S)-N-(3-(2-((1,5-dimethyl-1H-pyrazol-3-yl)amino)-5-methylpyrimidin-4-yl)-1H-indol-7-yl)-2-(3-((4-(piperidin-1-yl)pyrimidin-2-yl)oxy)pyrrolidin-1-yl)acetamide] cannot be ordered by IC50: < 10 nM for the first, < 10 nM for the second.

`Cc1cnc(Nc2cc(C)n(C)n2)nc1-c1c[nH]c2c(NC(=O)CN3CC[C@H](Oc4nccc(NC5CC5)n4)C3)cccc12` [Example 175, (S)-2-(3-((4-(cyclopropylamino)pyrimidin-2-yl)oxy)pyrrolidin-1-yl)-N-(3-(2-((1,5-dimethyl-1H-pyrazol-3-yl)amino)-5-methylpyrimidin-4-yl)-1H-indol-7-yl)acetamide] and `Cc1cnc(Nc2cc(C)n(C)n2)nc1-c1c[nH]c2c(NC(=O)CN3CC[C@H](Oc4ncc(F)c(NC5CC5)n4)C3)cccc12` [Example 179, (S)-2-(3-((4-(cyclopropylamino)-5-fluoropyrimidin-2-yl)oxy)pyrrolidin-1-yl)-N-(3-(2-((1,5-dimethyl-1H-pyrazol-3-yl)amino)-5-methylpyrimidin-4-yl)-1H-indol-7-yl)acetamide] cannot be ordered by IC50: < 10 nM for the first, < 10 nM for the second.

First: Cc1cnc(Nc2cc(C)n(C)n2)nc1-c1c[nH]c2c(NC(=O)CN3CC[C@H](Oc4ncc(F)c(N)n4)C3)cccc12 [Example 176, (S)-2-(3-((4-amino-5-fluoropyrimidin-2-yl)oxy)pyrrolidin-1-yl)-N-(3-(2-((1,5-dimethyl-1H-pyrazol-3-yl)amino)-5-methylpyrimidin-4-yl)-1H-indol-7-yl)acetamide]
Second: CNc1nc(O[C@H]2CCN(CC(=O)Nc3cccc4c(-c5nc(Nc6cc(C)n(C)n6)ncc5C)c[nH]c34)C2)ncc1F [Example 177, (S)-N-(3-(2-((1,5-dimethyl-1H-pyrazol-3-yl)amino)-5-methylpyrimidin-4-yl)-1H-indol-7-yl)-2-(3-((5-fluoro-4-(methylamino)pyrimidin-2-yl)oxy)pyrrolidin-1-yl)acetamide]
The IC50 of the first is higher: 10 to 100 nM for the first, < 10 nM for the second.

`CCNc1nc(O[C@H]2CCN(CC(=O)Nc3cccc4c(-c5nc(Nc6cc(C)n(C)n6)ncc5C)c[nH]c34)C2)ncc1F` [Example 178, (S)-N-(3-(2-((1,5-dimethyl-1H-pyrazol-3-yl)amino)-5-methylpyrimidin-4-yl)-1H-indol-7-yl)-2-(3-((4-(ethylamino)-5-fluoropyrimidin-2-yl)oxy)pyrrolidin-1-yl)acetamide] and `CCN(C)c1nc(O[C@H]2CCN(CC(=O)Nc3cccc4c(-c5nc(Nc6cc(C)n(C)n6)ncc5C)c[nH]c34)C2)ncc1F` [Example 182, (S)-N-(3-(2-((1,5-dimethyl-1H-pyrazol-3-yl)amino)-5-methylpyrimidin-4-yl)-1H-indol-7-yl)-2-(3-((4-(ethyl(methyl)amino)-5-fluoropyrimidin-2-yl)oxy)pyrrolidin-1-yl)acetamide] cannot be ordered by IC50: < 10 nM for the first, < 10 nM for the second.

Compared with `Cc1cnc(Nc2cc(C)n(C)n2)nc1-c1c[nH]c2c(NC(=O)CN3CC[C@H](Oc4ncc(F)c(NC5CCCCC5)n4)C3)cccc12` [Example 180, (S)-2-(3-((4-(cyclohexylamino)-5-fluoropyrimidin-2-yl)oxy)pyrrolidin-1-yl)-N-(3-(2-((1,5-dimethyl-1H-pyrazol-3-yl)amino)-5-methylpyrimidin-4-yl)-1H-indol-7-yl)acetamide], `Cc1cnc(Nc2cc(C)n(C)n2)nc1-c1c[nH]c2c(NC(=O)CN3CC[C@H](Oc4ncc(F)c(N5CCCCC5)n4)C3)cccc12` [Example 187, (S)-N-(3-(2-((1,5-dimethyl-1H-pyrazol-3-yl)amino)-5-methylpyrimidin-4-yl)-1H-indol-7-yl)-2-(3-((5-fluoro-4-(piperidin-1-yl)pyrimidin-2-yl)oxy)pyrrolidin-1-yl)acetamide] is lower in IC50: 10 to 100 nM for the first, < 10 nM for the second. The second is the more potent here.

`Cc1cnc(Nc2cc(C)n(C)n2)nc1-c1c[nH]c2c(NC(=O)CN3CC[C@H](Oc4ncc(F)c(N(C)C)n4)C3)cccc12` [Example 181, (S)-N-(3-(2-((1,5-dimethyl-1H-pyrazol-3-yl)amino)-5-methylpyrimidin-4-yl)-1H-indol-7-yl)-2-(3-((4-(dimethylamino)-5-fluoropyrimidin-2-yl)oxy)pyrrolidin-1-yl)acetamide] and `CCN(CC)c1nc(O[C@H]2CCN(CC(=O)Nc3cccc4c(-c5nc(Nc6cc(C)n(C)n6)ncc5C)c[nH]c34)C2)ncc1F` [Example 183, (S)-2-(3-((4-(diethylamino)-5-fluoropyrimidin-2-yl)oxy)pyrrolidin-1-yl)-N-(3-(2-((1,5-dimethyl-1H-pyrazol-3-yl)amino)-5-methylpyrimidin-4-yl)-1H-indol-7-yl)acetamide] cannot be ordered by IC50: < 10 nM for the first, < 10 nM for the second.

Compared with `Cc1cnc(Nc2cc(C)n(C)n2)nc1-c1c[nH]c2c(NC(=O)CN3CC[C@H](Oc4ncc(F)c(N(C)c5ccccc5)n4)C3)cccc12` [Example 184, (S)-N-(3-(2-((1,5-dimethyl-1H-pyrazol-3-yl)amino)-5-methylpyrimidin-4-yl)-1H-indol-7-yl)-2-(3-((5-fluoro-4-(methyl(phenyl)amino)pyrimidin-2-yl)oxy)pyrrolidin-1-yl)acetamide], `Cc1cnc(Nc2cc(C)n(C)n2)nc1-c1c[nH]c2c(NC(=O)CN3CC[C@H](Oc4ncc(F)c(N(C)Cc5ccccc5)n4)C3)cccc12` [Example 185, (S)-2-(3-((4-(benzyl(methyl)amino)-5-fluoropyrimidin-2-yl)oxy)pyrrolidin-1-yl)-N-(3-(2-((1,5-dimethyl-1H-pyrazol-3-yl)amino)-5-methylpyrimidin-4-yl)-1H-indol-7-yl)acetamide] is lower in IC50: 10 to 100 nM for the first, < 10 nM for the second. The second is the more potent here.

For `Cc1cnc(Nc2cc(C)n(C)n2)nc1-c1c[nH]c2c(NC(=O)CN3CC[C@H](Oc4ncc(F)c(N5CCCC5)n4)C3)cccc12` [Example 186, (S)-N-(3-(2-((1,5-dimethyl-1H-pyrazol-3-yl)amino)-5-methylpyrimidin-4-yl)-1H-indol-7-yl)-2-(3-((5-fluoro-4-(pyrrolidin-1-yl)pyrimidin-2-yl)oxy)pyrrolidin-1-yl)acetamide], the IC50 was < 10 nM.

— patent US20240025884A1 (Dong-A ST Co., Ltd., priority 2022, published 2024)
